Earlier results on two compounds are cited in paper PMC6482886 (Chemical Science, 2019).

Data set [1] addresses T1, hDMX (Homo sapiens, UniProt O15151).
T1 sequence (O15151 1-392): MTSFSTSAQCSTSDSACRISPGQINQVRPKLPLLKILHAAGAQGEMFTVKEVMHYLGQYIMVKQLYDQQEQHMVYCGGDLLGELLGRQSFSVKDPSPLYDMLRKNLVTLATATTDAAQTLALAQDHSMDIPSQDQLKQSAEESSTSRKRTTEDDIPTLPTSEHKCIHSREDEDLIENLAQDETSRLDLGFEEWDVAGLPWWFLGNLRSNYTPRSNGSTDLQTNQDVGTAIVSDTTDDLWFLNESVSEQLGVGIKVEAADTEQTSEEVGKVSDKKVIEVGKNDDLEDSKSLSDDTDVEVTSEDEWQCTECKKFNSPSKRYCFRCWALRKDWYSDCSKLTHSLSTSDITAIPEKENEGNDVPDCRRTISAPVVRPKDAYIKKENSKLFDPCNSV

Regarding `N#Cc1c2ccc(N)cc2nc2cc(N)ccc12` [CTX1], the “cellular IC50 / cellular activity reported in the literature” value is listed as “tens to hundreds of micromolar range”.

`CCOc1cc(/C=C2/C(=O)N(c3ccccc3)N=C2C)cc(Cl)c1OCC(=O)OC` [SJ-172550]: the “binding affinity to hDMX compared with p53” value in data set [1] is reported as “less affinity to hDMX than p53”.
